# Measured values from patent publication US8586571B2, “Heterocyclic compound” (Takeda Pharmaceutical Company Limited, priority 2007, dated 2013).
# Legend:
# Zucker fa/fa rat = assay: TG-lowering action using Zucker fa/fa rat (Charles River Laboratories Japan Inc.); type: in vivo; conditions: oral 30 mg/kg for 2 weeks
# Method: An anti-diabetes action and a blood triglyceride (hereinafter TG)-lowering action of the compound of the present invention were evaluated using Zucker fa/fa rats.
# Male 10-week-old Zucker fa/fa rats (Charles River Laboratories Japan Inc.) were bred in group on CE-2 solid food (CLEA Japan, Inc.) until 12-week-old for acclimation under conditions with free access to food. At 12-week-old, the rats were grouped based on the body weight, blood glucose level, glycated hemoglobin level, blood RBP4 level and blood triglyceride blood (hereinafter TG) (5 per group). Thereafter, the test compound (Example 12) was orally administered at a dose of 30 mg/kg (solvent: 0.5% methylcellulose solution (3 mL/kg)) for 2 weeks. The next day of the final administration of the compound, blood samples were collected from the tail vein, and plasma was separated. Using the collected plasma, (1) RBP4 concentration and (2) TG level were measured. (1) was quantified according to the protocol described in Experimental Example 2. (2) was measured using Hitachi fully automatic analyzer (Model 7070).
# A 0.5% methylcellulose solution (5 mL/kg) was orally administered to the control group. […] The results are shown in the following in mean±standard deviation (n=5).
# human RBP4 = human RBP4 (Homo sapiens (Human), UniProt P02753); assay: Binding assay by Retinol-RBP4-TTR ELISA (human-type ELISA); conditions: inhibition of binding of RBP4 with retinol and TTR; retinol 0.5 μM; read-out: human RBP4 binding inhibitory activity (IC50 nM)
# Method: The action of the compound of the present invention to inhibit binding of RBP4 and retinol and TTR was evaluated using the Retinol-RBP4-TTR ELISA (human-type ELISA) system shown below.
# Binding Assay by Retinol-RBP4-TTR ELISA
# This ELISA system detects a complex of retinol, RBP4 and TTR by Streptoavidin-Biotin reaction.
# His-tagged human RBP4 used was prepared in the above-mentioned 1C.
# Biotinylate human TTR used was prepared in the above-mentioned 1E.
# Streptavidin (20 μl) (10 μg/ml Streptavidin type II (Wako Pure Chemical Industries, Ltd.), 10 mM Tris-HCl (pH 7.5), 10 mM NaCl) was added to a 384 well black maxisorp plate (Nunc), and the plate was subjected to centrifugation (1000 rpm, 1 min) and coated overnight at 4° C. The plate was washed twice with PBST (PBS, 0.05% Tween 20, 100 μl/well) and blocked with 25% Block Ace (Snow Brand Milk Products Co., Ltd., PBS, 100 μl/well). The plate was subjected to centrifugation (1000 rpm, 1 min) and incubated at room temperature for 4 hr or overnight at 4° C. The plate was washed twice with PEST (PBS, 0.05% Tween 20, 100 μl/well), and biotinylated human TTR (stock solution concentration 1.3 mg/ml) diluted 1000-fold with PBST was added at 20 μl/well. The plate was subjected to centrifugation (1000 rpm, 1 min) and stood still at room temperature for 1.5 hr or overnight at 4° C. The plate was washed 3 times with PBST (100 μl/well), and His-tagged human RBP4 (stock solution concentration 0.96 mg/ml) diluted 4000-fold with a reaction buffer (50 mM Tris-HCl, 150 mM NaCl, 0.005% Tween 20, 1 mM DTT, 0.1% BSA) was added at 10 μl/well. The dilution series (8 doses from 10 mM, 200-fold concentration) of the compound was prepared with DMSO, and 1 μl of each was added to a reaction buffer (200 μl) containing retinol (0.5 μM) (Sigma-Aldrich Co.). A reaction buffer (200 μl) containing retinol and added with DMSO was used as a positive control, and reaction buffer (200 μl) free of retinol and added with DMSO was used as a negative control. Mixed solutions of retinol and the compound were added to the plate at 15 μl/well. The mixture was stirred in a platemixer subjected to centrifugation (1000 rpm, 1 min) and reacted at room temperature for 2 hr. A 35% Block Ace solution diluted with the reaction buffer was added at 10 μl/well, centrifuged (1000 rpm, 1 min) and reacted at room temperature for 30 min. The plate was washed 3 times with PBST (100 μl/well) and SuperSignal ELISA Femto Maximum Sensitivity Substrate reagent (PIERCE) was added at 30 μl/well, and the luminescence was measured by a platereader (Wallac).
# The binding inhibitory rate of the compound was determined by 100×(test compound value-negative control value)/(positive control value-negative control value). The binding activity (IC50) was calculated from the binding inhibitory rate at each compound concentration using a graph drawing software, Prism (GraphPad Software Inc.).
# RBP4 = RBP4 (Mus musculus (Mouse), UniProt Q00724); assay: Blood RBP4 lowering action in C57BL/6J mouse (plasma RBP4 by ELISA); type: in vivo; conditions: mean±SD (n=5)
# Method: A blood RBP4 lowering action of the compound of the present invention was evaluated using C57BL/6J mouse.
# Male 7- to 15-week-old C57BL/6J mice (Charles River Laboratories Japan Inc.) were individually bred for acclimation for 4-6 days under conditions with free access to CE-2 solid food (CLEA Japan, Inc.), and grouped based on the body weight (5 per group). The next day of grouping, blood samples were collected from the orbital venous plexus, and plasma was separated (0 hr value). Thereafter, the test compounds (Examples 12, 143, 164, 189, 197, 207 and 215) were orally administered at a dose of 50 mg/kg (solvent: 0.5% methylcellulose solution (10 mL/kg)). At 4, 7 and 24 hr after administration of the compounds, blood samples were collected from the orbital venous plexus, and plasma was separated. A 0.5% methylcellulose solution (10 mL/kg) was orally administered to the control group.
# The RBP4 level of the collected plasma was measured by ELISA. RBP4 was quantified by the following steps using a rabbit anti-mouse RBP4 polyclonal antibody (Hokudo Co., Ltd). A 96 well ELISA plate was coated with 50 μg/mL of the antibody (100 μL) and stood at 4° C. overnight. After blocking with BlockAce (DAINIPPON PHARMACEUTICAL CO., LTD.), mouse RBP4 or a sample (100 μL) was added and the plate was stood at room temperature for 2 hr. After washing with PBS-0.5% Tween 20, HRP-labeled anti-RBP4 antibody (prepared by labeling RBP4 polyclonal antibody (Hokudo Co., Ltd) with HRP (DOJINDO LABORATORIES)) was added by 100 μL, and the plate was stood at room temperature for 1 hr. After washing, TMB (Dako Cytomations) was added, and the mixture was stood at room temperature for 20 min to allow color development, and the reaction was quenched with 2N sulfuric acid. Thereafter, the absorbance at A450 nm was measured on a platereader. The amount of change from the initial value of each animal was determined as a relative value from the control group (% of initial/Control) at each time point. The results are shown in the following in mean±standard deviation (n=5).
smiles,measurement,setting,value
"CC(C)(C)c1ccccc1OC1CN(C(=O)CCC(=O)O)C1 [Example 12, 4-(3-(2-tert-butylphenoxy)azetidin-1-yl)-4-oxobutanoic acid]",TG (result in words),Zucker fa/fa rat; versus control,significant decrease
same,blood RBP4 concentration (result in words),Zucker fa/fa rat; versus control,significant decrease
same,RBP4,"Zucker fa/fa rat; plasma, mean±SD (n=5)",8.2 ± 1.1 µg/mL
same,TG,"Zucker fa/fa rat; plasma, mean±SD (n=5)",650.8 ± 130.6 mg/dL
same,IC50,human RBP4,210 nM
same,RBP4 (% of initial/Control) 4 hr later,RBP4; 4 hr after single oral 50 mg/kg,57.7 ± 3.6 % of initial/Control
same,RBP4 (% of initial/Control) 7 hr later,RBP4; 7 hr after single oral 50 mg/kg,44.3 ± 2.0 % of initial/Control
same,RBP4 (% of initial/Control) 24 hr later,RBP4; 24 hr after single oral 50 mg/kg,50.0 ± 3.4 % of initial/Control
